Broadly, the IC50 is the concentration that gives 50% inhibition. A high value points to weaker potency.

This is an account of results in patent publication US7192977B2, “Benz-indole and benzo-quinoline derivatives as prodrugs for tumor treatment” (School of Pharmacy, priority 2001, dated 2007).

Marks after values point to notes of the source that are not given here.

This data set has as its system Chinese Hamster Ovary (CHO) cell. Briefly: MTT cytotoxicity in CHO cells of the test compound with and without activation by NADPH-supplemented rat liver microsomes. In kind it is cell-based. The settings on record: for IC50: Cricetulus griseus, CHO, cells exposed 24 hours, MTT, mean+sd for three experiments. As to the method:
Test compound activation by CYP enzymes was carried out using NADPH supplemented rat liver microsomes. Incubation mixtures comprised microsomal protein (1 mg/ml), reduced-nicotinamide adenine dinucleotide phosphate (NADPH, 10 mM) and phosphate buffer (pH7.4, 100 mM). Test compound (0.01–100 μM final concentration) in DMSO (20 μl) was added to the microsomal incubation mixtures (0.5 ml) and incubated for 60 min at 37 C. Control incubates contained test compound and microsomal incubation mixture terminated at 0 time. All incubations were terminated by addition of an equal volume of ice-cold acetonitrile and microfuged for 3 min. Aliquots of the supernatant were added to cells in culture and cytotoxicity determined as described below.
Chinese Hamster Ovary (CHO) cell were grown in MEM supplemented with 10% dialysed FBS and G418 (400 μg/ml). All cells were seeded at an initial density of 1000 cells/well in 96-well-plates, incubation at 37° C. for 24 hours. Aliquots (0.1 ml) of the test compound/microsomal/acetonitrile supernatnant was then added to the CHO cells. Cells were then incubated for 24 hours at 37° C., 5% CO2. After this time period MTT (50 μl; 2 mg/ml stock solution) was added to each well and cells were incubated for a further 4 hours. During this time period MTT, a hydrogen acceptor tetrazolium salt, is reduced to formazan dye by mitochondrial dehydrogenase of viable cells. The media was aspirated from cells and DMSO (100 μl/well) added to solubilise the coloured formazan dye. Absorbance of the formazan dye in the 96-well-plates was then determined at 550 nm. The effect of microsomal activation by the test compound on the arrest of CHO cell growth could be determined by comparing the IC50 (concentration that inhibited cell growth by 50%) with and without microsomal incubation.

In the case of `COc1ccc2[nH]c(C(=O)N3CC(CCl)c4c3ccc3ccccc43)cc2c1` (stereo not drawn) [Compound 1.8, 1-(Chloromethyl)-3-[(5-methoxyindol-2-yl)carbonyl]-1,2-dihydro-3H-benz[e]indole], the IC50 runs as follows: (control incubate terminated at 0 time (no microsomal activation)) 1500 ± 530 nM; (supernatant after 60 min incubation with NADPH fortified rat liver microsomes) 100 nM. The “AF (activity factor, ratio of IC50 cytotoxicity values)” value (ratio of CHO IC50 without and with microsomal activation) was 15.0*.
